Data as given in patent US10729659B2, “Nanogel-mediated drug delivery” (The Cleveland Clinic Foundation, priority 2012, dated 2020).
Converted amounts (≈) assume the structure as drawn. Like-named read-outs stand apart in the source and are kept apart here.

Legend:
[1] = system: MCF-7/Adr; test: Sequential/simultaneous treatment, cell viability by MTS assay; type: cell-based, human; conditions: for IC50: Homo sapiens, NCI/ADR-RES
Experimental: (§1) The efficacy of sequential treatment was tested in the following human breast cancer cell lines: MCF-7/Adr (drug resistant), MCF-7, MDAMB 231 and BT-459. Cells were seeded at 3000 cells per well/0.1 mL in 96-well plates (Microtest Becton Dickinson Labware, Franklin Lakes, N.J.). 24 h post seeding, cells were pretreated with DAC solution/nanogel for 24 h or 48 h and washed with 1×-DPBS. 0.1 mL of media containing dox solution or nanogel was added and incubated in CO2 incubator for 48 h. Cell viability was determined at the end of incubation period using a standard MTS assay (CellTiter 96 Aqueous, Promega, Madison, Wis.). To each well was added 20 μL of reagent, the plates were incubated for 2 h at 37° C. in cell culture incubator, and color intensity was measured at 490 nm using a micro plate reader (Bio-Tek Instrument, Winooski, Vt.). The effect of drug on cell proliferation was calculated as percentage growth of cells with respect to their respective controls. For simultaneous treatment DAC solution or nanogel, and dox solution or nanogel were added together to cells, and the above mentioned protocol was followed.
(§2) The interaction between DAC and dox was analyzed using the Calcusyn software program (Biosoft, Ferguson, Mo.) to determine whether the simultaneous/sequential treatment was additive or synergistic.
Data from cell viability assay (MTS) was expressed as the fraction of cells killed by individual drugs or by their combination in drug-treated compared with untreated cells. This program is based upon Chou-Talalay method. It calculates combination index (CI) of drugs. From the CI values, synergistic action of drugs can be analysed. The CI equal to 1, indicates the additive effect and CI<1 and CI>1, indicates synergistic and antagonistic activity respectively.

[2] = system: BT 459; test: Sequential treatment, cell viability by MTS assay; type: cell-based; conditions: Homo sapiens, dox alone, read-out: IC50 (Dox ng/mL)
Experimental: as §1, with “For simultaneous treatment DAC solution or nanogel, and dox solution or nanogel were added together to cells, and the above mentioned protocol was followed.” left out
as §2
Data from cell viability assay (MTS) was expressed as the fraction of cells killed by individual drugs or by their combination in drug-treated compared with untreated cells. […]

[3] = system: dox sensitive cell lines; test: Dox cell viability by MTS assay, sensitive cell lines; type: cell-based; conditions: Homo sapiens; range over sensitive cell lines
Experimental: Cells were seeded at 3000 cells per well/0.1 mL in 96-well plates (Microtest Becton Dickinson Labware, Franklin Lakes, N.J.). […] Cell viability was determined at the end of incubation period using a standard MTS assay (CellTiter 96 Aqueous, Promega, Madison, Wis.). To each well was added 20 μL of reagent, the plates were incubated for 2 h at 37° C. in cell culture incubator, and color intensity was measured at 490 nm using a micro plate reader (Bio-Tek Instrument, Winooski, Vt.). The effect of drug on cell proliferation was calculated as percentage growth of cells with respect to their respective controls. For simultaneous treatment DAC solution or nanogel, and dox solution or nanogel were added together to cells, and the above mentioned protocol was followed.

[4] = system: MCF-7 cells; test: Cell cycle analysis by flow cytometry; type: cell-based, human; conditions: DAC 50 ng/mL, dox 1 ng/mL, 48 h and 72 h, vs DAC alone or untreated
Experimental: (§3) Subconfluent cells were left untreated or treated with DAC (50 and 100 ng/mL) and dox (1 ng/mL) alone or in combination (sequential treatment) for 4-96 h. Cells were then trypsinized and then centrifuged at 1,300 rpm for 3 min at 4° C. Cell pellet was washed twice with ice cold 1X DPBS (pH 7.4) and resuspended in propidium iodide-(PI) solution (12.5 mg PI, 250 mg Sodium-Citrate and 250 μL Triton X-100 in 250 mL of water). Cells were then incubated in ice bucket, kept in cold room for 2 h, and DNA content was determined by flow cytometry using a FACScan flow cytometer (Becton Dickinson, San Jose, Calif.).

[5] = system: MCF-7/Adr cells; test: Cell cycle analysis by flow cytometry; type: cell-based, human; conditions: DAC 50 ng/mL, dox 1 ng/mL, 48 h and 72 h, vs DAC alone or untreated
Experimental: as §3

[6] = system: MCF-7/Adr cells; test: Cellular uptake of dox; type: cell-based, human; conditions: dox alone treated MCF-7/Adr cells
Experimental: Drug resistant breast cancer cells were seeded in 24 well plates (1.2×10^6 cells/well). Post 48 h seeding, cells were pre-treated with DAC (50 ng/mL; 24 h); and then incubated with fixed concentration of dox (1 μg/mL) for indicated time points. Post drug incubation cell lysates in RIPA buffer was collected and lyophilized. Dox was extracted from lyophilized cell lysates using methanol as the solvent and analyzed by HPLC.

[7] = rat model; cited from earlier work

Row | IC50 ([1]; dox alone, mean ± s.e.m., three experiments, read-out: IC50 (Dox ng/mL)) | IC50 ([1]; pretreated with DAC 24 h, then dox 48 h, read-out: IC50 (Sequential - Deci + Dox ng/mL)) | IC50 (Dox ng/mL) ([1]; dox alone, mean ± s.e.m., three experiments) | Structure (SMILES) | IC50 [2] | IC50 [3] | G2/M arrest [4] | G2/M arrest [5] | Incubation time after which drug concentration reached plateau [6] | Carcinogenicity [7]
1 | 7380 ng/mL | ≤ 1 ng/mL | 7385.2 ± 698 ng/mL | COc1cccc2c1C(=O)c1c(O)c3c(c(O)c1C2=O)C[C@@](O)(C(=O)CO)C[C@@H]3O[C@H]1C[C@H](N)[C@H](O)[C@H](C)O1 [Dox, doxorubicin] | 102 ± 4.7 ng/mL | 0.019 to 0.102 µg/mL (≈ 0.035 to 0.188 µM) | no difference | no difference | 1 h | 
2 |  |  |  | Nc1ncn([C@@H]2O[C@H](CO)[C@@H](O)[C@H]2O)c(=O)n1 [5-azacytidine] |  |  |  |  |  | carcinogenic
